# Source: ChEMBL document CHEMBL1201862, “PubChem BioAssay data set” (2004)
# Active and inactive are the calls of the source. No stated cut-off is given here; in the data, actives have a measured IC50 and inactives only a lower limit.
# Target: Envelope glycoprotein gp160 (Human immunodeficiency virus 1, UniProt Q6QLK5)
# Assay: cell-free HIV fusion peptide-binding blockers – biochemical, uHTS, fluorescence dequenching, […] (AID 1986)
# Sequence of Envelope glycoprotein gp160 (Q6QLK5 whole entry, the tested form may be a part): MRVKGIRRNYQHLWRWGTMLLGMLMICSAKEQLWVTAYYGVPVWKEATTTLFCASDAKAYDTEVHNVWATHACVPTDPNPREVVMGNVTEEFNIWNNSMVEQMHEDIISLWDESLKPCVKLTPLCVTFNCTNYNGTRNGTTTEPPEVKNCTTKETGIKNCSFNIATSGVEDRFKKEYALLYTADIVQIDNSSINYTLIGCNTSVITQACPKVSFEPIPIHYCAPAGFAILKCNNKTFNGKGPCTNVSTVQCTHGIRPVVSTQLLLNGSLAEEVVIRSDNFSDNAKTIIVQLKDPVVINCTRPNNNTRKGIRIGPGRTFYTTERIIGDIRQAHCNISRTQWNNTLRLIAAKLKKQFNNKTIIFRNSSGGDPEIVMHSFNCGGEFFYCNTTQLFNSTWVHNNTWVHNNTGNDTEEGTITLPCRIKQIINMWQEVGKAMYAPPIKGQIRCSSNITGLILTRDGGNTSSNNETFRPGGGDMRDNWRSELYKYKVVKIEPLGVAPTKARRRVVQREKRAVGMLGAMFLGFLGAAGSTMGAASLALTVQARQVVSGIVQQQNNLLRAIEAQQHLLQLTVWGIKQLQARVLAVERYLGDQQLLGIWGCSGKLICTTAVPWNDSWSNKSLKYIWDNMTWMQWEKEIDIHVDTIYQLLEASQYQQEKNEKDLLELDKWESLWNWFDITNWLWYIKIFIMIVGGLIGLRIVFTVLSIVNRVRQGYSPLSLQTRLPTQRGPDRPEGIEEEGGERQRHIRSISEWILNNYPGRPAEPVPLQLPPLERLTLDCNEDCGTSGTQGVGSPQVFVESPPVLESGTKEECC
row,Compound,IC50
1,O=C(NC(=S)Nc1ccccc1C(=O)O)c1ccc(-c2ccc(Br)cc2)o1,18.5 µM (active)
2,O=C1NN(c2ccc(Cl)c(Cl)c2)C(=O)/C1=C/c1cccc(OC(=O)c2cccs2)c1,11.8 µM (active)
3,O=C(O)c1ccc(NS(=O)(=O)c2ccc3c(c2)C2C=CCC2C(c2ccccc2F)N3)cc1 (centres undefined),17.7 µM (active)
4,O=C(CCCN1C(=O)/C(=C/c2cccs2)SC1=S)Nc1ccc(O)c(C(=O)O)c1,24.1 µM (active)
